Measured values: patent US20100298377A1, “NOVEL SUBSTITUTED INDAZOLES, THE PREPARATION THEREOF AND USE OF SAME IN THERAPEUTICS” (SANOFI-AVENTIS, priority 2007, published 2010)
Structures can show the parent of a compound that is named as a salt.

How the values were obtained:
AKT1 = AKT1 (Homo sapiens, UniProt P31749, S473D); assay: Determination of the IC50 for AKT1 (HTRF); format: biochemical; conditions: AKT1 without PH domain, activated by PDK1
Description: Determination of the IC50 for AKT1
The inhibitory potential of the compounds is evaluated by HTRF, a time-resolved fluorescence technique based on non-radiative energy transfer (FRET). […] This phosphorylation allows the kinase activity of AKT1 to be activated.
Starting with a 10 mM solution of inhibitors, 3 μl are taken and placed in a 96-well polypropylene plate containing 27 μl of 100% DMSO. The various test compounds are diluted in cascade by taking 15 μl of compound, to which are added 30 μl of 100% DMSO.
The various reaction components are added in the following manner:
Next, 10 μl of the inhibitor solution are added. Finally, the reaction is initiated by adding 10 μl of a solution containing both 100 μM of ATP and 10 μM of biotinylated peptide. The sequence of this peptide is as follows: biot-[…] (reference Neosystem SP000560). The plate is then covered with a plastic film, agitated and finally incubated at RT for 30 minutes. […] After incubation overnight at 4° C., the plate is read using an Ultra evolution spectrophotometer from Tecan. […] All the tests are performed in duplicate and the mean of the two tests is calculated.
For each point, a delta F is calculated in the following manner:
(§1) R(Ratio)=counts665 nm/counts620 nm
ΔF % is calculated by the Tecan Ultra Evolution machine.

[1] = target: T1, Human S6K1 (24-421) T412E protein (Homo sapiens, UniProt P23443, T412E); assay: Determination of the IC50 for S6K1 (HTRF substrate phosphorylation test); format: biochemical; conditions: S6K1 activated by PDK1, ATP 30 μM
T1 construct: Human S6K1 (24-421) T412E protein; made in house; host or cells: Sf21 insect cells
T1 sequence (P23443 24-421 T412E): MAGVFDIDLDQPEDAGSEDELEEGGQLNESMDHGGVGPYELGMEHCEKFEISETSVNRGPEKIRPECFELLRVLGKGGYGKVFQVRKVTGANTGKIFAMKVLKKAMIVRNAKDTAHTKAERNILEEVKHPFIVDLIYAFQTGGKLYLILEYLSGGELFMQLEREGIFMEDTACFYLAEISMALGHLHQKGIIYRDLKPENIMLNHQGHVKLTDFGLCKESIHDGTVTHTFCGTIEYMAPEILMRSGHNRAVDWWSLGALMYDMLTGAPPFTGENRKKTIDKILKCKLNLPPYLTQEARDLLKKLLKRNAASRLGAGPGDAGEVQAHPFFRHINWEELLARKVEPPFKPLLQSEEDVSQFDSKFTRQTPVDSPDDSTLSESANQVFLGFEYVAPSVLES
Description: Determination of the IC50 for S6K1
The inhibitory potential of the compounds for S6K1 is evaluated in an enzymatic test of phosphorylation of substrate in HTRF (Homogenous Time-Resolved Fluorescence) format. Human S6K1 (24-421) T412E protein is expressed in sf21 cells and purified by chromatography on a nickel chelate column. It is activated by PDK1.
The test comprises two steps, both performed at RT. The phosphorylation reaction takes place during the first step and the revelation step is performed during the second. […] The final concentrations of compounds thus obtained during the incubation period range from 10 μM to 0.17 nM and the concentration of enzyme is 2 nM. After incubation for 20 minutes, the reaction is stopped and the revelation initiated by addition of 30 μl of a mixture of streptavidin XL 665 Xlent, ref. 611SAXLB Cis bio international, and a europium cryptate-coupled anti-phospho-GSK3 antibody, ref. 64CUSKAZ Cis bio international, dissolved in the revelation buffer (HEPES/NaOH 166.7 mM, EDTA 221.7 mM, KF 667.7 mM, BSA 0.167%, pH 7.0). The reaction takes place in a black half-well plate ref. 3694 Costar.
A mixture of the reaction medium after each addition of reagent is obtained by agitation for a few minutes at 700-1000 rpm on a Heidolph Titramax 100 machine. The reading is taken on a TECAN Ultra Evolution machine after at least one night and up to 3 nights at 4° C. The reading settings are as follows: excitation wavelength 320 nm, emission wavelengths 620 and 665 nm, lag time 150 μs, integration time 500 μs.
For each point, the ΔF % is calculated as follows:
as §1
The IC50 values are calculated by means of the XLfit4 205 equation.

[2] = test system: MEF-IGF1 murine fibroblast cells; assay: IGF1-dependent proliferation of MEF-IGF1 cells via incorporation of [14C]-thymidine; format: cell-based; conditions: [14C]-thymidine incorporation, IGF1 stimulated, 72 hours; read-out: IC50 MEF-IGF
Text: a. Study of the IGF1-Dependent Proliferation of MEF-IGF1 Murine Fibroblast Cells Measured via Incorporation of [14C]-Thymidine
This test is based on the incorporation of [^14C]-thymidine into the DNA of the cells for the S phase of the cell cycle during cell division. The cell line used in this test is the MEF/3T3 Tet-Off Clone 18 line obtained by stable transfection of the human receptor IGF1R in murine MEF/3T3 Tet-Off fibroblasts. To measure the IGF1-dependent cell proliferation, the cells were deprived of serum and cultured for 3 days in the serum-free culture medium in the presence of the growth factor IGF1 which stimulates the proliferation of MEF-IGF1 cells.
Test of Incorporation of [^14C]-Thymidine into MEF-IGF1 Cells
On day 1, the cells were inoculated with 7500 cells per well in Cytostar 96-well microplates (Amersham (GE) RPNQ0162) in 200 μl of EMEM medium (EMEM, Biowhittaker, #BE12-662F) containing 10% foetal calf serum (FCS, TET-BD Biosciences Tet System Approved FBS US-Sourced, #8630-1) and 1% PSG (Penicillin-Streptomycin-Glutamine (PSG), Gibco #10378-016), and incubated at 37° C., 5% CO2, for 24 hours. On day 2, the cells were washed in the FCS-free EMEM culture medium containing 1% PSG, and incubated in 170 μl of this serum-free culture medium at 37° C., 5% CO2, for 24 hours. On day 3, the cells were incubated with 10 μl of IGF1 (2 μg/ml of final concentration; recombinant human IGF-1, R & D Systems, #291-G1), 10 μl (0.1 μCi) of [^14C]-Thymidine (NEN NEC-568) plus 10 μl of increasing concentrations of the test molecules, diluted in dimethyl sulfoxide (DMSO, Sigma D2650). The molecules were added in a volume of 10 μl of a 20-fold concentrated solution in a final volume of 200 μl, the final percentage of DMSO being 0.1%. The treated cells were incubated at 37° C., 5% CO2, for 72 hours. The incorporation of [^14C]-Thymidine was quantified in cpm units (counts per minute) by counting the radioactivity 72 hours after the start of the treatment, using a Micro-Beta radioactivity counter (Perkin-Elmer). The tests were performed in duplicate.
i) the mean±s.e.m. of each series of well replicates was calculated;
ii) the background noise is calculated by preparing cell-free, IGF1-free and untreated control wells; this control was performed in 4 replicates. The background noise was removed at each measurement;
iii) the maximum response is given by positive control wells containing cells in the presence of IGF1 but untreated; this control was performed in 4 replicates;
iv) the minimum response is given by negative control wells containing IGF1-free and untreated cells; this control was performed in 4 replicates;
The IC50 values were calculated by […] with the XLfit software (IDBS, UK) using formula 205.

Chain of AKT1 (P31749 118-480 S473D limits assumed): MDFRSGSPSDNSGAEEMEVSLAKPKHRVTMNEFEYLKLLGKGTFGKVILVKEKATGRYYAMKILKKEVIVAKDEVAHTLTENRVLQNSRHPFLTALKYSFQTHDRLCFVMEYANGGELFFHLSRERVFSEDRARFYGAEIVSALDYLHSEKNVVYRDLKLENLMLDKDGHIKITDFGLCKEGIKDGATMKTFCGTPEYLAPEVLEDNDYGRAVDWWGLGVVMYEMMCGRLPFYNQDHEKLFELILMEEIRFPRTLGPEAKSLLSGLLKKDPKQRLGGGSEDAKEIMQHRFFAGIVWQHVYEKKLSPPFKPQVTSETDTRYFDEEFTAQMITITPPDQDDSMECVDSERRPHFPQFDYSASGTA

For `O=C(Nc1ccc2[nH]nc(C#Cc3ccccc3)c2c1)N[C@@H](c1ccc(Cl)c(Cl)c1)[C@@H]1CCCCN1` (as salt: fumaric acid salt) [Ex 26, 1-{(S)-(3,4-Dichlorophenyl)[(2S)-piperid-2-yl]methyl}-3-[3-(phenylethynyl)-1H-indazol-5-yl]urea], which melting point is on record?
Its melting point is 160 °C.

For `CN1CCCCC1C(NC(=O)Nc1ccc2[nH]nc(CCc3ccccc3)c2c1)c1ccccc1` (as salt: fumaric acid salt) [Ex 27, 1-[(1-Methylpiperid-2-yl)(phenyl)methyl]-3-[3-(2-phenylethyl)-1H-indazol-5-yl]urea((S,2S),(R,2R))], which melting point is on record?
The melting point was 205 °C.

With `CN1CCCCC1C(c1ccccc1)N(C)C(=O)Nc1ccc2[nH]ncc2c1` (as salt: fumaric acid salt) [Ex 32, 3-(1H-Indazol-5-yl)-1-methyl-1-[(1-methylpiperid-2-yl)phenylmethyl]urea((S,2S),(R,2R))] as the compound, how does the melting point read?
The melting point was 194 °C.

Which melting point does the source give for `CN(C(=O)NC(c1ccccc1)C1CCCCN1C)c1ccc2[nH]ncc2c1` (as salt: fumaric acid salt) [Ex 33, 1-(1H-Indazol-5-yl)-1-methyl-3-[(1-methylpiperid-2-yl)(phenyl)methyl]urea((S,2S),(R,2R))] here?
The melting point was 205 °C.

For `O=C(Nc1ccc2[nH]ncc2c1)N[C@@H](c1cc(F)cc(Cl)c1)[C@@H]1CCCCN1` (as salt: hydrochloride) [Ex 3, 1-{(S)-(3-Chloro-5-fluorophenyl)[(2S)-piperid-2-yl]methyl}-3-(1H-indazol-5-yl)urea], which melting point is on record?
The melting point was 208 °C.

For `CN1CCCCC1C(NC(=O)Nc1ccc2[nH]ncc2c1)c1cc(F)cc(Cl)c1` (centres unmarked) (as salt: hydrochloride) [Ex 11, 1-[(3-Chloro-5-fluorophenyl)(1-methylpiperid-2-yl)methyl]-3-(1H-indazol-5-yl)urea], which melting point is on record?
The melting point was 192 °C.

For `Nc1n[nH]c2ccc(NC(=O)N[C@@H](c3ccc(Cl)c(Cl)c3)[C@@H]3CCCCN3)cc12` (as salt: hydrochloride) [Ex 29, 1-(3-Amino-1H-indazol-5-yl)-3-{(S)-(3,4-dichlorophenyl)[(2S)-piperid-2-yl]methyl}urea], which melting point is on record?
The melting point was 214 °C.

With `O=C(Nc1ccc2[nH]ncc2c1)OC(c1cc(Cl)cc(Cl)c1)C1CCCCN1` (as salt: hydrochloride) [Ex 34, (3,5-Dichlorophenyl)[piperid-2-yl]methyl 1H-indazol-5-ylcarbamate((S,2S),(R,2R))] as the compound, how does the melting point read?
Its melting point is 220 °C.

With `O=C(Nc1ccc2[nH]ncc2c1)O[C@@H](c1cc(F)cc(Cl)c1)[C@@H]1CCCCN1` (as salt: hydrochloride) [Ex 35, (S)-(3-Chloro-5-fluorophenyl)[(2S)-piperid-2-yl]methyl 1H-indazol-5-ylcarbamate] as the compound, how does the melting point read?
Its melting point is 226 °C.

For `CN1CCCCC1C(OC(=O)Nc1ccc2[nH]ncc2c1)c1cc(F)cc(Cl)c1` (centres unmarked) (as salt: hydrochloride) [Ex 36, (3-Chloro-5-fluorophenyl)(1-methylpiperid-2-yl)methyl 1H-indazol-5-ylcarbamate], which melting point is on record?
The melting point was 172 °C.

Which melting point does the source give for `O=C(Nc1ccc2[nH]ncc2c1)O[C@@H](c1ccc(Cl)c(Cl)c1)[C@@H]1CCCCN1` (as salt: hydrochloride) [Ex 38b, (S)-(3,4-Dichlorophenyl)[(2S)-piperid-2-yl]methyl 1H-indazol-5-ylcarbamate] here?
The melting point was 194 °C.

Which IC50 (AKT1) does the source give for `O=C(Nc1ccc2[nH]ncc2c1)N[C@@H](c1ccccc1)[C@@H]1CCCCN1` [Ex 8, 1-{(S)-(Phenyl)[(2S)-piperid-2-yl]methyl}-3-(1H-indazol-5-yl)urea] here?
The IC50 was under 100 nM.

What about the IC50 [1] of the same compound?
Its IC50 is 500 to 2000 nM.

What about the melting point of the same compound?
Its melting point is 195 °C.

Which IC50 (AKT1) does the source give for `O=C(Nc1ccc2[nH]ncc2c1)N[C@H](c1ccccc1)[C@H]1CCCCN1` [Ex 9, 1-{(R)-(Phenyl)[(2R)-piperid-2-yl]methyl}-3-(1H-indazol-5-yl)urea] here?
The IC50 was 100 to 500 nM.

And the IC50 [1]?
The IC50 was 500 to 2000 nM.

And the melting point?
The melting point was 147 to 149 °C.

What does the source list for `C=CCN1CCCC[C@H]1[C@@H](NC(=O)Nc1ccc2[nH]ncc2c1)c1ccccc1` [Ex 10, 1-{(S)-(Phenyl)[(2S)-1-allylpiperid-2-yl]methyl}-3-(1H-indazol-5-yl)urea]?
IC50 (AKT1): 100 to 500 nM; melting point: 195 °C

With `Nc1n[nH]c2ccc(NC(=O)N[C@@H](c3ccc(Cl)c(Cl)c3)[C@@H]3CCCCN3)cc12` [Ex 29, 1-(3-Amino-1H-indazol-5-yl)-3-{(S)-(3,4-dichlorophenyl)[(2S)-piperid-2-yl]methyl}urea] as the compound, how does the IC50 (AKT1) read?
The IC50 was under 100 nM.

And the IC50 [1]?
The IC50 was 500 to 2000 nM.

What does the source list for `O=C(Nc1ccc2[nH]ncc2c1)O[C@H](c1ccc(Cl)c(Cl)c1)[C@@H]1CCCCN1` [Ex 38c, (R)-(3,4-Dichlorophenyl)[(2S)-piperid-2-yl]methyl 1H-indazol-5-ylcarbamate]?
IC50 (AKT1): 100 to 500 nM; IC50 [1]: 100 to 500 nM

Which IC50 (AKT1) does the source give for `O=C(Nc1ccc2[nH]ncc2c1)O[C@H](c1cc(F)cc(Cl)c1)[C@@H]1CCCCN1` [Ex 40, (R)-(3-Chloro-5-fluorophenyl)[(2S)-piperid-2-yl]methyl 1H-indazol-5-ylcarbamate] here?
Its IC50 is 500 to 2000 nM.

What about the IC50 [1] of the same compound?
Its IC50 is 500 to 2000 nM.

Which IC50 (AKT1) does the source give for `O=C(Nc1ccc2[nH]ncc2c1)O[C@@H](c1cccc(C(=O)NC2CCCCC2)c1)[C@@H]1CCCCN1` [Ex 47, (S)-(3-Cyclohexylcarbamoylphenyl)-(S)-piperid-2-ylmethyl (1H-Indazol-5-yl)carbamate] here?
The IC50 was under 100 nM.

What about the IC50 [1] of the same compound?
The IC50 was 100 to 500 nM.

Which IC50 (AKT1) does the source give for “(6-Fluoro-1H-indazol-5-yl)-(S)-(3-chloro-5-fluorophenyl)-(S)-piperid-2-ylmethyl carbamate [Ex 50]” here?
Its IC50 is under 100 nM.

And the IC50 [2]?
Its IC50 is 3160 nM.
